Laboratory results from patent US12310975B2, “Modulators of BCL6 proteolysis and associated methods of use” (Arvinas Operations, Inc., priority 2019, dated 2025).

Target: BCL6 (Homo sapiens (Human), UniProt P41182)
Assay: Immunofluorescence high content imaging of BCL6 degradation in T47D cells
Format: cell-based
Conditions: not given
Method in brief: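 BCL6 loss was quantified by high-content imaging (10×, 4 fields/well) after PFA fixation and anti-BCL6/Alexa-488 staining with Hoechst nuclear and CellMask counterstains. Compounds were applied for 3 days to T47D breast cancer cells in RPMI-10% FBS, 11 points, 3-fold steps, top 0.1 or 1 μM.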

SMILES | IC50
CCn1c(=O)c(OCC(=O)NC)cc2cc(Nc3nc(N4CCC(OC5CN(CC6CN(c7ccc8c(c7)C(=O)N(C7CCC(=O)NC7=O)C8=O)C6)C5)CC4)ncc3Cl)ccc21 (stereo not drawn) [compound 309, 2-[(6-{[5-chloro-2-(4-{[1-({1-[2-(2,6-dioxopiperidin-3-yl)-1,3-dioxo-2,3-dihydro-1H-isoindol-5-yl]azetidin-3-yl}methyl)azetidin-3-yl]oxy}piperidin-1-yl)pyrimidin-4-yl]amino}-1-ethyl-2-oxo-1,2-dihydroquinolin-3-yl)oxy]-N-methylacetamide] | 10 to 50 nM
CNC(=O)COc1cc2cc(Nc3nc(N4CCN(CC5CCN(c6cccc7c6C(=O)N(C6CCC(=O)NC6=O)C7=O)CC5)CC4)ncc3Cl)ccc2n(C(C)C)c1=O (stereo not drawn) [compound 311, 2-{[6-({5-chloro-2-[4-({1-[2-(2,6-dioxopiperidin-3-yl)-1,3-dioxo-2,3-dihydro-1H-isoindol-4-yl]piperidin-4-yl}methyl)piperazin-1-yl]pyrimidin-4-yl}amino)-2-oxo-1-(propan-2-yl)-1,2-dihydroquinolin-3-yl]oxy}-N-methylacetamide] | < 10 nM

Same assay, conditions: T47D

SMILES | Dmax
CCn1c(=O)c(OCC(=O)NC)cc2cc(Nc3nc(N4CCC(OC5CN(CC6CN(c7ccc8c(c7)C(=O)N(C7CCC(=O)NC7=O)C8=O)C6)C5)CC4)ncc3Cl)ccc21 (stereo not drawn) [compound 309, 2-[(6-{[5-chloro-2-(4-{[1-({1-[2-(2,6-dioxopiperidin-3-yl)-1,3-dioxo-2,3-dihydro-1H-isoindol-5-yl]azetidin-3-yl}methyl)azetidin-3-yl]oxy}piperidin-1-yl)pyrimidin-4-yl]amino}-1-ethyl-2-oxo-1,2-dihydroquinolin-3-yl)oxy]-N-methylacetamide] | 50 to 70%
CNC(=O)COc1cc2cc(Nc3nc(N4CCN(CC5CCN(c6cccc7c6C(=O)N(C6CCC(=O)NC6=O)C7=O)CC5)CC4)ncc3Cl)ccc2n(C(C)C)c1=O (stereo not drawn) [compound 311, 2-{[6-({5-chloro-2-[4-({1-[2-(2,6-dioxopiperidin-3-yl)-1,3-dioxo-2,3-dihydro-1H-isoindol-4-yl]piperidin-4-yl}methyl)piperazin-1-yl]pyrimidin-4-yl}amino)-2-oxo-1-(propan-2-yl)-1,2-dihydroquinolin-3-yl]oxy}-N-methylacetamide] | ≥ 70%

Same assay, conditions: T47D cells

SMILES | Dmax | IC50
CNC(=O)COc1cc2cc(Nc3nc(N4CCC(F)(CN5CCN(c6ccc(C(=O)NC7CCC(=O)NC7=O)c(OC)c6)CC5)CC4)ncc3Cl)ccc2n(C)c1=O (stereo not drawn) [compound 366, 4-[4-({1-[5-chloro-4-({1-methyl-3-[(methylcarbamoyl)methoxy]-2-oxo-1,2-dihydroquinolin-6-yl}amino)pyrimidin-2-yl]-4-fluoropiperidin-4-yl}methyl)piperazin-1-yl]-N-(2,6-dioxopiperidin-3-yl)-2-methoxybenzamide] | 50 to 70% | < 10 nM
CCCn1c(=O)c(OCC(=O)NC)cc2cc(Nc3nc(N4CCC[C@H](COc5cccc6c5C(=O)N(C5CCC(=O)NC5=O)C6=O)C4)ncc3Cl)ccc21 (stereo partly drawn) [compound 318, 2-{[6-({5-chloro-2-[(3S)-3-({[2-(2,6-dioxopiperidin-3-yl)-1,3-dioxo-2,3-dihydro-1H-isoindol-4-yl]oxy}methyl)piperidin-1-yl]pyrimidin-4-yl}amino)-2-oxo-1-propyl-1,2-dihydroquinolin-3-yl]oxy}-N-methylacetamide] | 50 to 70% | 50 to 100 nM
CNC(=O)COc1cc2cc(Nc3nc(N4CCN(CCN5CCN(c6cccc7c6C(=O)N(C6CCC(=O)NC6=O)C7=O)CC5)CC4)ncc3Cl)ccc2n(C)c1=O (stereo not drawn) [compound 321, 2-{[6-({5-chloro-2-[4-(2-{4-[2-(2,6-dioxopiperidin-3-yl)-1,3-dioxo-2,3-dihydro-1H-isoindol-4-yl]piperazin-1-yl}ethyl)piperazin-1-yl]pyrimidin-4-yl}amino)-1-methyl-2-oxo-1,2-dihydroquinolin-3-yl]oxy}-N-methylacetamide] | 50 to 70% | < 10 nM
CNC(=O)COc1cc2cc(Nc3nc(N4CCO[C@H](COc5ccc(C(=O)NC6CCC(=O)NC6=O)c(F)c5)C4)ncc3Cl)ccc2n(C(C)C)c1=O (stereo partly drawn) [compound 350, 4-{[(2S)-4-[5-chloro-4-({3-[(methylcarbamoyl)methoxy]-2-oxo-1-(propan-2-yl)-1,2-dihydroquinolin-6-yl}amino)pyrimidin-2-yl]morpholin-2-yl]methoxy}-N-(2,6-dioxopiperidin-3-yl)-2-fluorobenzamide] | < 50% | < 10 nM
CNC(=O)COc1cc2cc(Nc3nc(N4CCN(CC5CCCN5c5cccc6c5C(=O)N(C5CCC(=O)NC5=O)C6=O)CC4)ncc3Cl)ccc2n(C(C)C)c1=O (stereo not drawn) [compound 398, 2-{[6-({5-chloro-2-[4-({1-[2-(2,6-dioxopiperidin-3-yl)-1,3-dioxo-2,3-dihydro-1H-isoindol-4-yl]pyrrolidin-2-yl}methyl)piperazin-1-yl]pyrimidin-4-yl}amino)-2-oxo-1-(propan-2-yl)-1,2-dihydroquinolin-3-yl]oxy}-N-methylacetamide] | < 50% | < 10 nM
CNC(=O)COc1cc2cc(Nc3nc(N4C[C@@H](C)N(CC5CCN(c6cccc(C(=O)NC7CCC(=O)NC7=O)c6F)CC5)[C@@H](C)C4)ncc3Cl)ccc2n(C)c1=O (stereo partly drawn) [compound 355, 3-(4-{[(2R,6S)-4-[5-chloro-4-({1-methyl-3-[(methylcarbamoyl)methoxy]-2-oxo-1,2-dihydroquinolin-6-yl}amino)pyrimidin-2-yl]-2,6-dimethylpiperazin-1-yl]methyl}piperidin-1-yl)-N-(2,6-dioxopiperidin-3-yl)-2-fluorobenzamide] | 50 to 70% | 50 to 100 nM
CNC(=O)COc1cc2cc(Nc3nc(N4CCC(CN5CC6(CCN(c7ccc(C(=O)NC8CCC(=O)NC8=O)c(OC)c7)CC6)C5)CC4)ncc3Cl)ccc2n(C(C)C)c1=O (stereo not drawn) [compound 438, 4-[2-({1-[5-chloro-4-({3-[(methylcarbamoyl)methoxy]-2-oxo-1-(propan-2-yl)-1,2-dihydroquinolin-6-yl}amino)pyrimidin-2-yl]piperidin-4-yl}methyl)-2,7-diazaspiro[3.5]nonan-7-yl]-N-(2,6-dioxopiperidin-3-yl)-2-methoxybenzamide] | ≥ 70% | 10 to 50 nM
CNC(=O)COc1cc2cc(Nc3nc(N4CCC(O[C@H]5C[C@H](N6CCC(c7ccc8c(c7)C(=O)N(C7CCC(=O)NC7=O)C8=O)CC6)C5)CC4)ncc3Cl)ccc2n(C(C)C)c1=O (stereo partly drawn) [compound 403, 2-({6-[(5-chloro-2-{4-[(1r,3r)-3-{4-[2-(2,6-dioxopiperidin-3-yl)-1,3-dioxo-2,3-dihydro-1H-isoindol-5-yl]piperidin-1-yl}cyclobutoxy]piperidin-1-yl}pyrimidin-4-yl)amino]-2-oxo-1-(propan-2-yl)-1,2-dihydroquinolin-3-yl}oxy)-N-methylacetamide] | 50 to 70% | < 10 nM

Same assay, conditions: class symbols A-D, read-out: EC50 (nM)*

SMILES | DC50
CNC(=O)COc1cc2cc(Nc3nc(N4CCC(OCCNc5cccc6c5C(=O)N(C5CCC(=O)NC5=O)C6=O)CC4)ncc3Cl)ccc2n(C)c1=O (stereo not drawn) [compound 80, 2-((6-((5-chloro-2-(4-(2-((2-(2,6-dioxopiperidin-3-yl)-1,3-dioxoisoindolin-4-yl)amino)ethoxy)piperidin-1-yl)pyrimidin-4-yl)amino)-1-methyl-2-oxo-1,2-dihydroquinolin-3-yl)oxy)-N-methylacetamide] | 50 to 100 nM
CNC(=O)COc1cc2cc(Nc3nc(N4CCC(OCCOCCOCCOCCOc5ccccc5Oc5ccc6c(c5)CN(C5CCC(=O)NC5=O)C6=O)CC4)ncc3Cl)ccc2n(C)c1=O (stereo not drawn) [compound 134, 2-((6-((5-chloro-2-(4-(2-(2-(2-(2-(2-((2-(2,6-dioxopiperidin-3-yl)-1-oxoisoindolin-5-yl)oxy)phenoxy)ethoxy)ethoxy)ethoxy)ethoxy)piperidin-1-yl)pyrimidin-4-yl)amino)-1-methyl-2-oxo-1,2-dihydroquinolin-3-yl)oxy)-N-methylacetamide] | > 100 nM
O=C1CCC(N2C(=O)c3ccc(OCCOCCN4CCC(Oc5cc(Nc6ccc7c(c6)CCC(=O)N7)c(Cl)cc5[N+](=O)[O-])CC4)cc3C2=O)C(=O)N1 (stereo not drawn) [compound 74, 5-(2-(2-(4-(4-chloro-2-nitro-5-((2-oxo-1,2,3,4-tetrahydroquinolin-6-yl)amino)phenoxy)piperidin-1-yl)ethoxy)ethoxy)-2-(2,6-dioxopiperidin-3-yl)isoindoline-1,3-dione] | > 100 nM
CNC(=O)COc1cc2cc(Nc3nc(N4CCC(OCc5cccc(COCCOCCOCCOc6ccc7c(c6)CN(C6CCC(=O)NC6=O)C7=O)c5)CC4)ncc3Cl)ccc2n(C)c1=O (stereo not drawn) [compound 97, 2-((6-((5-chloro-2-(4-((3-((2-(2-(2-((2-(2,6-dioxopiperidin-3-yl)-1-oxoisoindolin-5-yl)oxy)ethoxy)ethoxy)ethoxy)methyl)benzyl)oxy)piperidin-1-yl)pyrimidin-4-yl)amino)-1-methyl-2-oxo-1,2-dihydroquinolin-3-yl)oxy)-N-methylacetamide] | 50 to 100 nM
CNC(=O)COc1cc2cc(Nc3nc(N4CCC(c5cn(CCOCCOc6ccc7c(c6)C(=O)N(C6CCC(=O)NC6=O)C7=O)nn5)CC4)ncc3Cl)ccc2n(C)c1=O (stereo not drawn) [compound 107, 2-((6-((5-chloro-2-(4-(1-(2-(2-((2-(2,6-dioxopiperidin-3-yl)-1,3-dioxoisoindolin-5-yl)oxy)ethoxy)ethyl)-1H-1,2,3-triazol-4-yl)piperidin-1-yl)pyrimidin-4-yl)amino)-1-methyl-2-oxo-1,2-dihydroquinolin-3-yl)oxy)-N-methylacetamide] | 10 to 50 nM
CNC(=O)COc1cc2cc(Nc3nc(N4CCC(Cc5cn(CCOCCOCC(=O)N[C@H](C(=O)N6C[C@H](O)C[C@H]6C(=O)N[C@@H](C)c6ccc(-c7scnc7C)cc6)C(C)(C)C)nn5)CC4)ncc3Cl)ccc2n(C)c1=O [compound 133, (2S,4R)-1-((S)-2-(2-(2-(2-(4-((1-(5-chloro-4-((1-methyl-3-(2-(methylamino)-2-oxoethoxy)-2-oxo-1,2-dihydroquinolin-6-yl)amino)pyrimidin-2-yl)piperidin-4-yl)methyl)-1H-1,2,3-triazol-1-yl)ethoxy)ethoxy)acetamido)-3,3-dimethylbutanoyl)-4-hydroxy-N-((S)-1-(4-(4-methylthiazol-5-yl)phenyl)ethyl)pyrrolidine-2-carboxamide] | > 100 nM
CNC(=O)COc1cc2cc(Nc3nc(N4CCC(c5cn(CCOCCOCCOCCOCC(=O)N[C@H](C(=O)N6C[C@H](O)C[C@H]6C(=O)N[C@@H](C)c6ccc(-c7scnc7C)cc6)C(C)(C)C)nn5)CC4)ncc3Cl)ccc2n(C)c1=O [compound 108, (2S,4R)-1-((S)-2-(tert-butyl)-17-(4-(1-(5-chloro-4-((1-methyl-3-(2-(methylamino)-2-oxoethoxy)-2-oxo-1,2-dihydroquinolin-6-yl)amino)pyrimidin-2-yl)piperidin-4-yl)-1H-1,2,3-triazol-1-yl)-4-oxo-6,9,12,15-tetraoxa-3-azaheptadecanoyl)-4-hydroxy-N-((S)-1-(4-(4-methylthiazol-5-yl)phenyl)ethyl)pyrrolidine-2-carboxamide] | 50 to 100 nM
